Test results published in paper PMC9814205, “Targeting undruggable carbohydrate recognition sites through focused fragment library design” (Communications Chemistry, 2022).
“And” between values parts separate entries of the source, which are not always exact repeats. Equal values may be shown once. “Also recorded” adds a separate entry of the source.

Experiments:
Type in all cases: binding
[1] = biological target: T1, LecA (Pseudomonas aeruginosa, UniProt Q05097); experiment: Competitive 19F T2-filtered NMR with reporter 5; conditions: 0.1 mM 5, 10 mM CaCl2, 3 mM competitor
T1 construct: made in house
T1 sequence (Q05097 whole entry): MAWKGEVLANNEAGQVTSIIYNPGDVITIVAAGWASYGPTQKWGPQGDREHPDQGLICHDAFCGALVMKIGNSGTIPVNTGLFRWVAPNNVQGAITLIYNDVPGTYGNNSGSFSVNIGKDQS
Experimental: The analogs of 1 (5) and 58 (61) were used as fluorinated spy molecules in ^19F T2-filtered NMR experiments. Two samples containing 0.1 mM 5 or 61 alone or a 10 µM protein in TBS/EDTA buffer followed by addition of 10 mM CaCl2 and the carbohydrates: 1 mM MeGal (LecA), 1 mM MeFuc (LecB/BambL) and 30 mM D-mannose (DC-SIGN/Langerin). Similarly, 0.1 mM 5 was used to prioritize hydroxamate derivatives, where 3 mM analogs of 1 were added to the samples instead of the carbohydrates. The ^19F and ^19F T2-filtered spectra were recorded with 64 scans, a spectral width of 5 ppm, a transmitter offset at −155.5 ppm (5) and −155.5 ppm (61), the acquisition time of 0.8 s, 2 s relaxation time applying a T2-filter of 384 ms. All spectra were analyzed as described above.

[2] = biological target: T2, 5FW LecA (PA-IL) (Pseudomonas aeruginosa, UniProt Q05097); experiment: PrOF NMR with 5-fluorotryptophan-labeled LecA; conditions: for LE: ligand efficiency calculated from Kd for LecA, 310 K
T2 construct: made in house
T2 sequence (Q05097 2-122): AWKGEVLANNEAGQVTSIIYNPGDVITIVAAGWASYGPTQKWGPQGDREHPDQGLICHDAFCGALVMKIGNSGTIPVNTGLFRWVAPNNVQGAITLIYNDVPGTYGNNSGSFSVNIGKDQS
Experimental: PrOF NMR was performed as reported previously. Briefly, 150 µM 5FW LecA was recorded alone and in the presence of DMSO or 2–4 mM compounds in TBS/Ca^2+ buffer. The difference in chemical shift perturbations of W42 in 5FW LecA free vs bound forms was followed to determine Kd values of compounds. The Kd values were calculated according to the one-site-binding model in Origin(Pro) 2020b (OriginLab Corp., USA) from two or three independent titrations. Ligand efficiency values were calculated according to Eq. (1) for a temperature of 310 K.

[3] = biological target: T3, 15N LecA (Pseudomonas aeruginosa, UniProt Q05097); experiment: 1H-15N TROSY NMR with 15N LecA; conditions: 4 mM analogs of 1, 1 mM marketed hydroxamates
T3 construct: made in house
T3 sequence (Q05097 whole entry): as the sequence (Q05097 whole entry) above
Experimental: (§1) The ^1H-^15N TROSY pulse sequence trosyf3gpphsi19 with 128 increments and 32 scans per increment was applied for 0.15 mM ^15N LecA and 0.07 mM LecB in HBS/Ca^2+ buffer (20 mM HEPES pH 7.4, 150 mM NaCl, 10 mM CaCl2, 10% D2O and 100 µM sodium trimethylsilylpropanesulfonate (DSS) as internal reference) at 310 K. The ^1H-^15N HSQC pulse sequence hsqcf3gpph19 with 128 increments and 8 scans per increment was applied for 0.1 mM ^15N DC-SIGN and Langerin CRD in HBS/Ca^2+ buffer at 298 K. For screening of 650 non-fluorinated fragments of the general library against ^15N LecA, a mix of 10 compounds at 1 mM each was combined with 0.15 mM ^15N LecA in HBS/Ca^2+ buffer (20 mM HEPES pH 7.4, 150 mM NaCl, 10 mM CaCl2, 10% D2O and 100 µM sodium trimethylsilylpropanesulfonate (DSS) as internal reference, whereas the fragments with the MBP scaffolds were validated separately at 1 mM. Similarly, 9 nonfluorinated fragments from the MBP library were screened against ^15N-labeled DC-SIGN, LecA and LecB. To validate the fragment binding to proteins, we recorded ^1H-^15N HSQC and TROSY NMR of proteins in the presence of DMSO as negative control and 2 mM fragments in HBS/Ca^2+ buffer. Natural ligands were used as positive controls at 1 mM MeGal, MeFuc and 30 mM D-mannose to LecA/LecB and DC-SIGN CRD/Langerin CRD, respectively. Titration experiments with ^15N-labeled DC-SIGN CRD or LecB were recorded in HBS/Ca^2+ buffer with 30 mM CaCl2 and 0.25 to 4–8 mM malonic acid derivatives. The Kd values were calculated according to the one-site-binding model in Origin(Pro) 2020b (OriginLab Corp., USA). Ligand efficiency calculations were done according to Eq. (1) for a temperature of 298 K and 310 K for DC-SIGN CRD and LecB, respectively.1 LE=RTlnKd/HA, with the temperature T [K], the gas constant R [kcal mol^−1 K^−1], and the number of non-hydrogen atoms HA[56].
(§2) All data were processed with NMRpipe[65] and analyzed with CcpNmr analysis. For data analysis, the protein fingerprint of ^15N DC-SIGN (Table S7) or Langerin CRD was assigned as reported previously. The ^1H-^15N TROSY resonances of ^15N LecA and ^15N LecB were indexed with IDs due to a lack of protein backbone resonance assignment (Tables S8-S9). Next, resonance IDs from protein spectra were transferred to the spectra obtained in the presence of compounds in order to compare the changes in chemical shift perturbations for the fast exchange peaks. The changes in chemical shift perturbations (CSPs) were calculated according to Eq. (2):2 △δ=1/2△δH2+α△δN^2 in which δ is the difference in chemical shift (in ppm) and α is an empirical weighting factor of 0.14 for all amino acid backbone resonances. The threshold value was set based on three independent measurements of reference spectra to 0.01 ppm for LecA, LecB, DC-SIGN CRD and Langerin CRD.

[4] = biological target: T1, LecA; experiment: Competitive fluorescence polarization (FP) assay; conditions: for Inhibition in FP: compared to MeGal at 10 mM (16 h); for inhibition at 10000 µM: read-out: Inhibition in FP, compared to MeGal at 10 mM (16 h)
Experimental: The FP assay was performed in a black 384-well plate (Greiner Bio-One, Germany, 781900) with the final volume of 20 µL as described previously. Briefly, 10 µL of a sample solution series (10–0.078 mM) in TBS buffer containing 10 mM Ca^2+ (TBS/Ca^2+-buffer) and 20% DMSO were added in technical triplicates to 10 µL LecA (40 µM) preincubated with a galactose-based Cy5 conjugate[68] (20 nM) in TBS/Ca^2+-buffer. […] The plate was sealed (EASYseal, Greiner Bio-One, 676,001), centrifuged (1 min, 1500 rpm, 25 °C) and incubated in a humidity chamber for 16 h. The fluorescence was measured with an excitation 590 nm and emission 675 nm filter[68] on a PheraStar FS plate reader (BMG Labtech GmbH, Germany). The blank signal of TBS/Ca^2+-buffer containing 10% DMSO was subtracted and the compounds were analyzed with the MARS Data Analysis Software (BMG Labtech GmbH Germany) using the four-parameter variable slope model. The top and bottom plateaus were defined according to the positive controls. The graphs were visualized using Graphpad Prism 5. The percentage (%) of inhibition was calculated at the highest concentration compared with 10 mM MeGal set to 100%.

[5] = biological target: T4, DC-SIGN CRD (CD209) (Homo sapiens, UniProt Q9NNX6); experiment: 1H-15N HSQC NMR with 15N DC-SIGN CRD
T4 construct: the carbohydrate recognition domain (CRD) of DC-SIGN in ^1H-^15N HSQC/TROSY NMR experiments; made in house
T4 sequence (Q9NNX6 263-378 limits assumed): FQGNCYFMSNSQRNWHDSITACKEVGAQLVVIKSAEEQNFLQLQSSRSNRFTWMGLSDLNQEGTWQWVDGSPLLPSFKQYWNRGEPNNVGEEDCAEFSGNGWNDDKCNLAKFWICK
Experimental: as §1, §2

SMILES: O=C(Cc1ccccc1)NO [compound 2, N-hydroxy-2-phenylacetamide]
- competition of reporter 5 from LecA (recovery of 19F peak) [1]: recovered
- Kd [2]: 6.1 ± 0.9 mM
- binding to 15N LecA in TROSY NMR [3]: preserved the binding
- Inhibition in FP [4]: 18 ± 1%
- inhibition at 10000 µM [4]: 18.3 ± 1%

SMILES: O=C(CC1CCCCC1)NO [compound 6]
- Kd [2]: 4.4 ± 0.6 mM
- LE [2]: 0.30 kcal mol^−1 HA^−1
- binding to 15N LecA in TROSY NMR [3]: preserved its binding
- inhibition at 10000 µM [4]: 21 ± 1%

SMILES: CONC(=O)Cc1ccccc1 [compound 7]
- binding to 15N LecA in TROSY NMR [3]: not tolerated
- Inhibition in FP [4]: lost their binding and inhibitory effect; also recorded: No inhibiton

SMILES: CN(O)C(=O)Cc1ccccc1 [compound 8]
- binding to 15N LecA in TROSY NMR [3]: not tolerated
- inhibition at 10000 µM [4]: 20 ± 3%

SMILES: Cc1ccc(CC(=O)NO)cc1 [compound 9]
- Inhibition in FP [4]: 14–16% and 16 ± 2%

SMILES: Cc1ccccc1CC(=O)NO [compound 10]
- Inhibition in FP [4]: 14–16% and 14 ± 4%

SMILES: O=C(Cc1ccc(Br)cc1)NO [compound 11]
- Inhibition in FP [4]: 14–16% and 14 ± 1%

SMILES: COc1ccc(CC(=O)NO)cc1 [compound 15]
- Inhibition in FP [4]: 14–16% and 16 ± 4%

SMILES: COc1cccc(C(O)=CC(=O)NO)c1 [compound 31]
- inhibition at 10000 µM [4]: 9 ± 2%

SMILES: O=C(CCCc1ccccc1)NO [compound 35, N-hydroxy-4-phenylbutanamide]
- competition of reporter 5 from LecA (recovery of 19F peak) [1]: recovered; also recorded: displaced
- Kd [2]: 4.6 ± 0.9 mM
- LE [2]: 0.26 kcal mol^−1 HA^−1
- binding to 15N LecA in TROSY NMR [3]: preserved the binding
- inhibition at 10000 µM [4]: 26 ± 1%

SMILES: Cc1ccc(CCCC(=O)NO)cc1 [compound 36]
- Kd [2]: 3.6 ± 2.2 mM
- LE [2]: 0.25 kcal mol^−1 HA^−1
- binding to 15N LecA in TROSY NMR [3]: slightly improved binding
- Inhibition in FP [4]: 35 ± 3%
- inhibition at 10000 µM [4]: 27 to 39%

SMILES: O=C(CCCc1cccs1)NO [compound 37]
- inhibition at 10000 µM [4]: 25 ± 3%

SMILES: O=C(CCCc1ccc(Br)cc1)NO [compound 38]
- inhibition at 10000 µM [4]: 25 ± 1%

SMILES: O=C(CCCc1ccc([N+](=O)[O-])cc1)NO [compound 39]
- Inhibition in FP [4]: 4 ± 2%

SMILES: COc1ccc(CCCC(=O)NO)cc1 [compound 40]
- Inhibition in FP [4]: 27 ± 1%
- inhibition at 10000 µM [4]: 27 to 39%

SMILES: O=C(CCCc1ccc(O)cc1)NO [compound 41]
- Inhibition in FP [4]: 39 ± 1%
- inhibition at 10000 µM [4]: 27 to 39%

SMILES: O=C(CC=Cc1ccccc1)NO [compound 42]
- binding to 15N LecA in TROSY NMR [3]: not tolerated
- inhibition at 10000 µM [4]: 13 ± 3%

SMILES: O=C(COCCc1ccccc1)NO [compound 43]
- binding to 15N LecA in TROSY NMR [3]: not tolerated
- inhibition at 10000 µM [4]: 8 ± 3%

SMILES: O=C(COCCCc1ccccc1)NO [compound 44]
- inhibition at 10000 µM [4]: 17 ± 2%

SMILES: O=C(O)C(F)(CC1CCC1)C(=O)O [compound 61]
- binding to 5FW LecA (perturbation of W42) in PrOF NMR ([2]; 2 mM compound): perturbed W42; also recorded: strongest perturbation of W42
- W42 [ppm] ([2]; 19F resonance of 0.15 mM 5FW LecA with 2 mM compound, DMSO 120.50): 120.32 ppm
- W2 [ppm] ([2]; 19F resonance of 0.15 mM 5FW LecA with 2 mM compound, DMSO 121.43): 121.46 ppm
- W33 [ppm] ([2]; 19F resonance of 0.15 mM 5FW LecA with 2 mM compound, DMSO 121.67): 121.73 ppm
- W84 [ppm] ([2]; 19F resonance of 0.15 mM 5FW LecA with 2 mM compound, DMSO 123.50): 123.52 ppm
- Kd ([5]; 15N DC-SIGN CRD, titration, one-site binding model, 30 mM CaCl2): 1.9 mM
- LE ([5]; ligand efficiency calculated from Kd for DC-SIGN CRD, 298 K): 0.28 kcal mol^−1 HA^−1
